Results: publication PMC7232165 (Viruses, 2020)
Read-outs that look alike come from different tables or passages of the source.

Columns and labels:
[1] = HLMs; cited from earlier work
[2] = system: HIV-1NL4-3; assay: Anti-HIV-1 assay in TZM-GFP cells (LTR-activated GFP expression); conditions: for EC50: read-out: EC50 (concentration of compound inhibiting HIV-1 replication by 50%); for antiviral activity against HIV-1 (in words): screened at 20 μM
[3] = in vitro; type: cell-based; conditions: human, TZM-GFP cells, 72 h, XTT; mean ± standard deviation; read-out: CC50 (concentration of compound causing 50% cell death)
[4] = system: TZM-GFP cells; assay: in vitro; type: cell-based; conditions: for CC50: TZM-GFP cells, 72 h, XTT, mean ± standard deviation, read-out: CC50 (concentration of compound causing 50% cell death)
[5] = target: covalently-crosslinked hexameric CA A14C/E45C/W184A/M185A (CA121) (Human immunodeficiency virus type 1 group M subtype B, UniProt P12493, A146C/E177C/M317A/W316A); assay: Thermal shift assay (TSA) for effect on HIV-1 CA hexamer stability; type: binding; conditions: compound 20 µM
[6] = Microsomal stability assay, human liver microsomes; type: in vitro ADME; conditions: for half-life at 1 µM: human liver microsomes
[7] = Microsomal stability assay, mouse liver microsomes; type: in vitro ADME
[8] = Human immunodeficiency virus 1, 48 h

Structure (SMILES) | EC50 [2, 8] | CC50 at 72 h [3] | other results
Cc1[nH]c2ccccc2c1CC(=O)N[C@@H](Cc1ccccc1)C(=O)N(C)c1ccccc1 [Compound 1, PF74, reference compound] | 0.61 ± 0.2 µM | – | half-life (t1/2) in human liver microsomes [1]: less than 1 min
COC(=O)C1CCCN1C(=O)C(NC(=O)Cn1c(=O)[nH]c2ccccc2c1=O)C(C)C (stereo not shown) [Compound 2] | > 20 µM | > 100 µM | cytotoxicity (in words) ([4]; screened at 100 μM): no cytotoxicity; antiviral activity against HIV-1 (in words) [2]: no significant antiviral activity
COC(=O)[C@@H]1CCCN1C(=O)CNC(=O)Cn1c(=O)[nH]c2ccccc2c1=O [Compound 3] | > 20 µM | > 100 µM | effect on CA hexamer stability (in words) [5]: complete loss of the CA hexamer stabilizing effect
COC(=O)[C@@H]1CCCN1C(=O)[C@H](Cc1cccc2cc[nH]c12)NC(=O)Cn1c(=O)[nH]c2ccccc2c1=O [Compound 4] | > 20 µM | < 100 µM | –
COC(=O)[C@@H]1CCCN1C(=O)[C@H](Cc1cccc2cc[nH]c12)NC(=O)Cn1c(=O)[nH]c2ccccc2c1=O [Compound 5] | – | – | CC50 [4]: > 100 µM; EC50 ([2]; TZM-GFP cells, MOI = 1, 48 h, mean ± standard deviation, at least two independent experiments): > 20 µM
COC(=O)[C@@H]1CCCN1C(=O)[C@H](CSCc1ccccc1)NC(=O)Cn1c(=O)[nH]c2ccccc2c1=O [Compound 6] | > 20 µM | > 100 µM | effect on CA hexamer stability (in words) [5]: no such effect was observed
CCC(C)[C@H](NC(=O)Cn1c(=O)[nH]c2ccccc2c1=O)C(=O)N1CCC[C@H]1C(=O)OC (stereo partly shown) [Compound 7] | > 20 µM | > 100 µM | effect on CA hexamer stability (in words) [5]: no such effect was observed
O=C(Cn1c(=O)[nH]c2ccccc2c1=O)N[C@@H](CSCc1ccccc1)C(=O)N1CCC[C@H]1C(=O)Nc1ccccc1 [Compound 8] | > 20 µM | 44 ± 5 µM | –
O=C(Cn1c(=O)[nH]c2ccccc2c1=O)N[C@@H](Cc1cccc2cc[nH]c12)C(=O)N1CCC[C@H]1C(=O)Nc1ccccc1 [Compound 9] | > 20 µM | > 100 µM | –
O=C(Cn1c(=O)[nH]c2ccccc2c1=O)N[C@@H](Cc1ccccc1)C(=O)N1CCC[C@H]1C(=O)Nc1ccccc1 [Compound 10] | 1.6 ± 0.1 µM | > 100 µM | effect on CA hexamer stability (in words) [5]: moderate CA hexamer stabilizing effects; half-life (t1/2) in HLMs, fold longer than PF74 ([6]; HLMs, relative to PF74): 44 fold; half-life at 1 µM ([6]; pH 7.4, with Cobicistat 0.5 µM (CYP3A inhibitor), in the presence of CYP3A inhibitor Cobicistat 0.5 µM, read-out: Phase I metabolic stability t1/2, HLM (+Cobi)): > 120 min; half-life at 1 µM ([6]; pH 7.4, 1 µM compound, NADPH, read-out: Phase I metabolic stability t1/2, HLM): 31 min; half-life at 1 µM ([7]; pH 7.4, mouse liver microsomes, 1 µM compound, NADPH, read-out: Phase I metabolic stability t1/2, MLM): 2.9 min; half-life at 1 µM ([7]; pH 7.4, with Cobicistat 0.5 µM (CYP3A inhibitor), mouse liver microsomes, in the presence of CYP3A inhibitor Cobicistat 0.5 µM, read-out: Phase I metabolic stability t1/2, MLM (+Cobi)): 85 min; antiviral potency (EC50), fold less than PF74 ([2]; relative to PF74 EC50 = 0.61 μM): 2.5 fold; antiviral activity against HIV-1 (in words) [2]: significant anti-HIV-1 activities
CN(C(=O)[C@H](Cc1ccccc1)NC(=O)Cn1c(=O)[nH]c2ccccc2c1=O)c1ccccc1 [Compound 11] | 6.9 ± 0.8 µM | > 100 µM | effect on CA hexamer stability (in words) [5]: moderate CA hexamer stabilizing effects; antiviral activity against HIV-1 (in words) [2]: significant anti-HIV-1 activities
O=C(Cn1c(=O)[nH]c2ccccc2c1=O)N[C@@H](Cc1ccccc1)C(=O)Nc1ccccc1 [Compound 12] | – | – | effect on CA hexamer stability (in words) [5]: did not show activity in either assay; CC50 [4]: < 100 µM; EC50 [2]: > 20 µM; antiviral activity against HIV-1 (in words) [2]: did not show activity in either assay
CN(C(=O)[C@H](Cc1ccccc1)NC(=O)Cn1c(=O)[nH]c2ccccc2c1=O)c1ccc(F)cc1 [Compound 13] | – | – | effect on CA hexamer stability (in words) [5]: moderate CA hexamer stabilizing effects; CC50 [4]: > 100 µM; EC50 [2]: 8 ± 1.3 µM; antiviral activity against HIV-1 (in words) [2]: significant anti-HIV-1 activities
CC(C)C[C@H](NC(=O)Cn1c(=O)[nH]c2ccccc2c1=O)C(=O)N(C)c1ccccc1 [Compound 14] | – | – | CC50 [4]: > 100 µM; EC50 [2]: > 20 µM
CC(C)C[C@H](NC(=O)Cn1c(=O)[nH]c2ccccc2c1=O)C(=O)Nc1ccccc1 [Compound 15] | – | – | CC50 [4]: > 100 µM; EC50 [2]: > 20 µM
Cc1ccc(N(C)C(=O)[C@@H](NC(=O)Cn2c(=O)[nH]c3ccccc3c2=O)C(C)(C)C)cc1 [Compound 16] | – | – | CC50 [4]: > 100 µM; EC50 [2]: > 20 µM
CC(C)(C)[C@H](NC(=O)Cn1c(=O)[nH]c2ccccc2c1=O)C(=O)Nc1ccccc1 [Compound 17] | – | – | CC50 [4]: > 100 µM; EC50 [2]: > 20 µM
CCC(C)[C@H](NC(=O)Cn1c(=O)[nH]c2ccccc2c1=O)C(=O)N(C)c1ccccc1 (stereo partly shown) [Compound 18] | – | – | CC50 [4]: > 100 µM; EC50 [2]: > 20 µM
CCC(C)[C@H](NC(=O)Cn1c(=O)[nH]c2ccccc2c1=O)C(=O)Nc1ccccc1 (stereo partly shown) [Compound 19] | – | – | CC50 [4]: > 100 µM; EC50 [2]: > 20 µM
CCC(C)[C@H](NC(=O)Cn1c(=O)[nH]c2ccccc2c1=O)C(=O)N(C)c1ccc(Cl)cc1 (stereo partly shown) [Compound 20] | – | – | CC50 [4]: > 100 µM; EC50 [2]: > 20 µM

Structure (SMILES) | EC50 [2, 8] | CC50 at 72 h [3] | other results
CCC(C)[C@H](NC(=O)Cn1c(=O)[nH]c2ccccc2c1=O)C(=O)Nc1ccc(-c2nnn[nH]2)cc1 (stereo partly shown) [Compound 21] | – | – | CC50 [4]: > 100 µM; EC50 [2]: > 20 µM
O=C(Cn1c(S)nnc1-c1ccccc1)NNc1ccccn1 [Compound 22] | > 20 µM | > 100 µM | –
O=C(Cn1c(S)nnc1-c1ccccc1)NNc1ccccc1 [Compound 23] | > 20 µM | > 100 µM | –
O=C(Cn1c(S)nnc1-c1ccccc1)NNc1ccc(F)cc1 [Compound 24] | > 20 µM | > 100 µM | –
N#Cc1ccc(NNC(=O)Cn2c(S)nnc2-c2ccccc2)cc1 [Compound 25] | > 20 µM | > 100 µM | –
N#Cc1cccc(NNC(=O)Cn2c(S)nnc2-c2ccccc2)c1 [Compound 26] | > 20 µM | > 100 µM | –
Cc1ccc(-c2nnc(S)n2CC(=O)NNc2ccccc2)cc1 [Compound 27] | > 20 µM | ~100 µM | –
Cc1ccc(-c2nnc(S)n2CC(=O)NNc2ccc(F)cc2)cc1 [Compound 28] | > 20 µM | > 100 µM | –
Cc1ccc(-c2nnc(S)n2CC(=O)NNc2ccc(C#N)cc2)cc1 [Compound 29] | > 20 µM | > 100 µM | –
Cc1ccc(-c2nnc(S)n2CC(=O)NNc2ccc(-c3ccccc3)cc2)cc1 [Compound 30] | > 20 µM | > 100 µM | –
Cc1ccc(-c2nnc(S)n2CC(=O)NNc2ccccn2)cc1 [Compound 31] | > 20 µM | > 100 µM | –
Cc1ccccc1-c1nnc(S)n1CC(=O)NNc1ccccc1 [Compound 32] | > 20 µM | > 100 µM | –
Cc1ccc(NNC(=O)Cn2c(S)nnc2-c2ccccc2C)cc1 [Compound 33] | > 20 µM | > 100 µM | –
Cc1ccccc1-c1nnc(S)n1CC(=O)NNc1ccc(C#N)cc1 [Compound 34] | > 20 µM | > 100 µM | –
O=C(Cn1c(S)nnc1-c1cccc2ccccc12)NNc1ccccc1 [Compound 35] | > 20 µM | > 100 µM | –
O=C(Cn1c(S)nnc1-c1ccccc1)NNc1ccc(-c2ccccc2)cc1 [Compound 36] | > 20 µM | > 100 µM | –
Cc1ccc(NNC(=O)Cn2c(S)nnc2-c2cccc3ccccc23)cc1 [Compound 37] | > 20 µM | > 100 µM | –
N#Cc1ccc(NNC(=O)Cn2c(S)nnc2-c2cccc3ccccc23)cc1 [Compound 38] | > 20 µM | > 100 µM | –
CN(NC(=O)Cn1c(S)nnc1-c1ccccc1)c1ccccc1 [Compound 39] | > 20 µM | > 50 µM | –
